Measurements from patent US4225579A, “Means and method for improving defenses against caries” (priority 1979, dated 1980).
Residues, ends and D or L forms follow the SMILES beside them.

How the values were obtained:
Assay type in all cases: cell-based
oral bacteria [1] = experiment: pH of glucose solution incubated with oral bacteria suspension, Sets I-IV; conditions: 37° C.; for pH at 0 minutes: 0 time when bacteria added, test substance 3.3 mM in combined composition
Protocol: Experiments were performed in vitro using supernatant saliva. The saliva was obtained from random donors whose salivary secretions were paraffin block stimulated. The saliva donations were pooled before and after sediment removal.
Four sets of three 10×75 mm test tubes were provided with 0.2 ml of 8.4 mM (millimolar) of aqueous glucose solution. Set I was provided with 0.2 ml of pooled supernatant saliva. Set II was provided with 0.2 ml of 9.9 mM of the peptide glycine-glycine-arginine. Set III was provided with 0.2 ml of 9.9 mM arginine. Set IV was provided with 0.2 ml of distilled water. Sequentially 0.2 ml of a 50:50 aqueous suspension of oral bacteria was added to each test tube. The concentration of the peptide in the combined composition was 3.3 mM. The prepared test tubes were kept at 37° C. in a water bath. pH readings were taken at 0 time when the bacteria was added and at 15, 30, 45, 60, 90, 120, 180 and 240 minutes.

salivary sediment = experiment: pH fall and rise with individual peptides of 2-4 amino acid units in salivary sediment-glucose mixture; conditions: for pH rising to / pH drop to: salivary sediment 16.7% (v/v), glucose 2.8 mM, peptide 3.3 mM; for pH rising to: measured through the fourth hour; for pH drop to: pH starts slightly above 7
Protocol: Four sets of three 10×75 mm test tubes were provided with 0.2 ml of 8.4 mM (millimolar) of aqueous glucose solution. Set I was provided with 0.2 ml of pooled supernatant saliva. […] Set IV was provided with 0.2 ml of distilled water. […] The concentration of the peptide in the combined composition was 3.3 mM. […] The pH values are as follows: Extensive testing of individual peptides of 2-4 amino acid units as could reasonably be obtained or synthesized was done. The tests were carried out under the same conditions as Sets I-IV. The salivary sediment was present in an amount of 16.7% (v/v), glucose 2.8 mM and the peptide 3.3 mM in the final composition. Duplicate runs without peptide were run parallel to the others as a double check. […] An effective pH rise factor begins to reverse the fall within the first hour. Measurement continues through the fourth hour.

oral bacteria [2] = experiment: pH of glucose solution incubated with oral bacteria suspension, Sets I-IV; conditions: 37° C., 3.3 mM

N=C(N)NCCC[C@H](N)C(=O)O.NCC(=O)O.NCC(=O)O [Gly-Gly-Arg, glycine-glycine-arginine]
pH at 0 minutes (oral bacteria [1]): 7.4
pH at 15 minutes (oral bacteria [1]; 3.3 mM): 6.8
pH at 39 minutes (oral bacteria [1]; 39 minutes, 3.3 mM): 6.6
pH at 45 minutes (oral bacteria [1]; 3.3 mM): 6.4
pH at 60 minutes (oral bacteria [1]; 3.3 mM): 6.6
pH at 90 minutes (oral bacteria [1]; 3.3 mM): 6.6
pH at 120 minutes (oral bacteria [1]; 3.3 mM): 6.7
pH at 180 minutes (oral bacteria [1]; 3.3 mM): 7.2
pH at 240 minutes (oral bacteria [1]; 3.3 mM): 7.6
pH rising to (salivary sediment): 7.5
pH drop to (salivary sediment): 5.5

N=C(N)NCCC[C@H](NC(=O)[C@H](CCCCN)NC(=O)CNC(=O)CN)C(=O)O [Gly-Gly-Lys-Arg, H-glycine-glycine-lysine-arginine-OH] (H-GGKR-OH)
effectiveness as pH rise factor (salivary sediment): proven effective
pH rising to (salivary sediment): 8.4
pH drop to (salivary sediment): 6.4

N=C(N)NCCC[C@H](N)C(=O)O [Set III, arginine, reference compound]
pH at 0 minutes (oral bacteria [1]): 7.3
pH at 15 minutes (oral bacteria [1]; 3.3 mM): 5.8
pH at 45 minutes (oral bacteria [1]; 3.3 mM): 5.2
pH at 60 minutes (oral bacteria [1]; 3.3 mM): 4.9
pH at 90 minutes (oral bacteria [1]; 3.3 mM): 5.0
pH at 120 minutes (oral bacteria [1]; 3.3 mM): 5.0
pH at 180 minutes (oral bacteria [1]; 3.3 mM): 5.3
pH at 240 minutes (oral bacteria [1]; 3.3 mM): 5.8
pH at 39 minutes (oral bacteria [2]): 5.4
